Here are results for 13 compounds from patent EP1100483B1, “GLUCOCORTICOID-SELECTIVE ANTI-INFLAMMATORY AGENTS” (Abbott Laboratories, priority 1998, dated 2000).

Bounds are passed on as bounds.

The assay addresses T1, minerocorticoid receptor (MR) (Homo sapiens, UniProt P08235).
T1 construct: made in house; host or cells: SF21 insect cells (baculovirus)
T1 sequence (P08235 1-984): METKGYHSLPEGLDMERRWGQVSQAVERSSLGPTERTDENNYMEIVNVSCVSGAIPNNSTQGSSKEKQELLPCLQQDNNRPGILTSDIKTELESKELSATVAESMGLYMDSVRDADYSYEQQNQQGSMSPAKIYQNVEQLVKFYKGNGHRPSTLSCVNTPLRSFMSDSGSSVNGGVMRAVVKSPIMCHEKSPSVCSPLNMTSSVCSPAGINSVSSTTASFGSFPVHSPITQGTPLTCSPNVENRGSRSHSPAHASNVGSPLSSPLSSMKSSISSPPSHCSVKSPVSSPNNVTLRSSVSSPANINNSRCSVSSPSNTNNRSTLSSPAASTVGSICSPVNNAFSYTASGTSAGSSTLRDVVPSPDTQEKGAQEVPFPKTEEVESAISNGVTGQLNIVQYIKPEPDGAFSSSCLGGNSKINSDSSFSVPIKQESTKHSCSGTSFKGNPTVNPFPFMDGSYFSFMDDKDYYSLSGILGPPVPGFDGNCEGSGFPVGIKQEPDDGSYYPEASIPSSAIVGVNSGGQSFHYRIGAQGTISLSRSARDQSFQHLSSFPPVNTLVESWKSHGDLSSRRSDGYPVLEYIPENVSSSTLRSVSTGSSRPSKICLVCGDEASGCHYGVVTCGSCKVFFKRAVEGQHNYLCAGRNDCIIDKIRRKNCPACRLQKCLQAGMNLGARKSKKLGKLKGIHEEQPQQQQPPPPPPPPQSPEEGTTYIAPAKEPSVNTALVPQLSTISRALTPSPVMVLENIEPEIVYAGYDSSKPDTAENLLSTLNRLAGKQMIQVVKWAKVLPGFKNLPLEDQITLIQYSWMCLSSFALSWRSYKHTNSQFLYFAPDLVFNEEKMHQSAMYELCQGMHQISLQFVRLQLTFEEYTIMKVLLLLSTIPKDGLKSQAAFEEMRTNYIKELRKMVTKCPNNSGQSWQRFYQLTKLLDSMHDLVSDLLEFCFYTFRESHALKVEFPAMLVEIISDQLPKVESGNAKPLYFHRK
Nature of the assay: soluble minerocorticoid receptor (MR) binding assay, [3H]-aldosterone competition. To be noted: 3-4 nM [3H]-aldosterone, 4 °C for 18 hours; Cheng-Prusoff. The source says: For soluble minerocorticoid receptor (MR) binding assays, [^3H]-aldosterone (75-85 Ci/mmol) was purchased from New England Nuclear (Boston, MA), aldosterone was purchased from Sigma Chemical Co. (St. Louis, MO), CHAPS and DTT were purchased from Boehringer Mannheim GmbH (W. Germany) and all other reagents were purchased from Sigma.
The methods concerning growth, purification, and assays of recombinant viruses followed the protocol outlined by Summers, M.D., Smith, G.E., A Manual of Methods for Baculovirus Vectors and Insect Cell Culture Procedures, Tex. Agric. Exp. Stn. [Bull], 1987, No. 155, hereby incorporated by reference. The recombinant plasmids were cotransfected into SF21 cells with wild type AcNPV DNA, and the recombinant viruses were plaque purified.
A receptor extract was prepared from the baculovirus system, and aliquots were stored at -80 °C until used. Typical protein concentrations for these extracts were between 10 and 20 mg/ml. Stock solutions of aldosterone or other competing compounds were prepared as either 5 mM ethanol or DMSO stock solutions and serial dilutions were carried out in 1:1 DMSO-ethanol. The assay buffer consisted of the following: 25 mM sodium phosphate, 10 mM potassium fluoride, 20 mM sodium molybdate, 10% glycerol, 2 mM DTT and 0.25 mM CHAPS, pH=7.3 at room temperature.
Receptor assays were performed with a final volume of 250 µL containing from 50-75 µg of extract protein, plus 3-4 nM [^3H]-aldosterone and varying concentrations of competing ligand (0 to 10,000 nM). Assays were set up using a 96-well minitube system and incubations were carried out at 4 °C for 18 hours. Equilibrium under these conditions of buffer and temperature was achieved by 6-8 hours. Nonspecific binding was defined as that binding remaining in the presence of 1000 nM unlabeled aldosterone. At the end of the incubation period, 200 µL of 6.25% hydroxyapatite was added in wash buffer (binding buffer in the absence of DTT and CHAPS). Specific ligand binding to receptor was determined by a hydroxyapatite-binding assay according to the protocol outlined by Wecksler, W.R., Norman, A.W., An Hydroxylapatite Batch Assay for the Quantitation of 1α, 25-Dihydroxyvitamin D3-Receptor Complexes, Anal. Biochem. 1979, 92, 314-323, hereby incorporated by reference. Hydroxyapatite absorbs the receptor-ligand complex, allowing for the separation of bound from free radiolabeled ligand. The mixture was vortexed, incubated for 10 minutes at 4 °C, centrifuged, and the supernatant was removed. The hydroxyapatite pellet was washed twice more with the wash buffer. The amount of receptor-ligand complex was determined by liquid scintillation counting of the hydroxyapatite pellet after the addition of […] EcoScint A scintillation cocktail from National Diagnostics (Atlanta, GA.).
After correcting for nonspecific binding, IC50 values were determined. […] The IC50 values were determined graphically from a log-logit plot of the data. […] Standards are included in each assay and resulting Ki values are determined by use of a modified Cheng-Prusoff equation and used to calculate Ki values for "unknown analogs" as outlined by DeBlasi, A., O'Reilly, K., Motulsky, H.J., Calculating Receptor Number from Binding Experiments Using Same Compound As Radioligand and Competitor, TIPS 1989, 10.227-229, hereby incorporated by reference.
What is called Ki is a measure of affinity in units of concentration, obtained from inhibition or displacement. Higher therefore signals lower affinity. As for `CN(C)c1ccc(C(c2ccc(N(C)C)cc2)c2cc([N+](=O)[O-])ccc2Cl)cc1` [Example 1, 4',4" bis(dimethylamino)-2-chloro-5-nitrotriphenylmethane], affinity was put at a Ki of 2900 nM. The result for `CNc1ccc(C(c2ccc(NC)cc2)c2cc([N+](=O)[O-])ccc2Cl)cc1` [Example 23, 4',4" bis(methylamino)-2-chloro-5-nitrotriphenylmethane] reads over 10000 nM. The result for `CN(C)c1ccc(C(c2ccc(N(C)C)cc2)c2cc(Cl)ccc2Cl)cc1` [Example 24, 4',4" bis(dimethylamino)-2,5-dichlorotriphenylmethane] reads 2900 nM. The compound `CNc1ccc(C(c2ccc(NC)cc2)c2cc(Cl)ccc2Cl)cc1` [Example 27, 4',4" bis(methylamino)-2,5-dichlorotriphenylmethane] returned a Ki of over 10000 nM. The result for `CC(=O)OCCN(C)c1ccc(C(c2ccc(N(C)CCOC(C)=O)cc2)c2cc([N+](=O)[O-])ccc2Cl)cc1` [Example 31, 4',4" bis(N-(2-acetoxyethyl) N-methylamino)-2-chloro-5-nitrotriphenylmethane] reads 3910 nM; that for `CN(CCO)c1ccc(C(c2ccc(N(C)CCO)cc2)c2cc([N+](=O)[O-])ccc2Cl)cc1` [Example 32, 4',4" bis(N-(2-hydroxyethyl) N-methylamino)-2-chloro-5-nitrotriphenylmethane], 3910 nM; that for `O=[N+]([O-])c1ccc(Cl)c(C(c2ccc(NCc3ccccc3)cc2)c2ccc(NCc3ccccc3)cc2)c1` [Example 36, 4',4" bis(N-benzylamino)-2-chloro-5-nitrotriphenylmethane], 2900 nM.

Compound `CNc1ccc(C(c2ccc(N(C)C)cc2)c2cc([N+](=O)[O-])ccc2Cl)cc1` (stereo not shown) [Example 39, 4'-dimethylamino-4"-methylamino-2-chloro-5-nitrotriphenylmethane] had a Ki of 2900 nM.

With `CN(C)c1ccc(C(c2ccc(N(C)CCO)cc2)c2cc([N+](=O)[O-])ccc2Cl)cc1` (stereo not shown) [Example 42, 4'-dimethylamino-4"-(N-methyl-N-(2-hydroxyethyl)amino)-2-chloro-5-nitrotriphenylmethane], the affinity, expressed as Ki, was 2900 nM.

On to `CNc1ccc(C(c2ccc(N(C)CCOC(C)=O)cc2)c2cc([N+](=O)[O-])ccc2Cl)cc1` (stereo not shown) [Example 49, 4'-methylamino-4"-(N-(2-acetoxyethyl)-N-methylamino)-2-chloro-5-nitrotriphenylmethane], for which the Ki was determined as 3910 nM. The Ki values of the last two compounds are within 1.5-fold of each other. Turning to `CC(=O)OCCN(C)c1ccc(C(c2ccc(N(C)C)cc2)c2cc([N+](=O)[O-])ccc2Cl)cc1` (stereo not shown) [Example 51, 4'-dimethylamino-4"-(N-methyl-N-(2-acetoxyethyl)amino)-2-chloro-5-nitrotriphenylmethane], the Ki was over 10000 nM.

As for `CN(C)c1ccc(C(Oc2ccccc2)c2cc([N+](=O)[O-])ccc2Cl)cc1` (stereo not shown) [Example 52, phenyl-[(4'-dimethylaminophenyl)-(2-chloro-5-nitrophenyl)methyl] ether], the Ki amounted to 3110 nM.

`CN(C)c1ccc(C(Sc2ccccc2)c2cc([N+](=O)[O-])ccc2Cl)cc1` (stereo not shown) [Example 54, phenyl-[(4'-dimethylaminophenyl)-(2-chloro-5-nitrophenyl)methyl]thioether] registered a Ki of 2900 nM.
